Assay results as given in patent publication US10023565B2, “N,N′ substituted piperidinamine compounds, and preparation method and usage thereof” (Institute of Pharmacology and Toxicology Academy of …, priority 2013, dated 2018).

Experiments:
Hsp70 = molecular target: T1, Hsp70 (Homo sapiens, UniProt P0DMV8); experiment: Measurement of affinity between compounds and Hsp70 (SPR, BIACORE T100); type: binding
T1 construct: purchased Enzo Life Sciences ADI-ESP-550-D
Procedure: Instrument for measuring the affinity between Example compounds and Hsp70 is BIACORE T100 Biomolecular Interaction Analysis (GE, USA), and the positive control drug is VER-155008 that is well-recognized as Hsp70 inhibitor now, and, on the basis of the measured results, according to binding characteristics between the compounds and protein, the binding constant (equilibrium dissociation constant KD) between drugs and protein is calculated by selecting steady state model with the formula: Conc*Rmax/[conc+KD]+offset.
1. Instrument: BIACORE T100 Biomolecular Interaction Analysis (GE, USA)
2. Reagents: PBS Buffer (×10), P20, CM5 chip (GE, USA), Hsp70 (human, ADI-ESP-550-D), manufactured by Enzo Life Sciences.
30 mM mother liquor of the compound was formulated with DMSO, which was diluted to 2 mM application solution with DMSO before use. 5 μl of the application solution was taken and diluted with 95 μl 1.05×PBS to 100 μM, and then diluted in turn with PBS containing 5% DMSO to […]. PBS containing 5% DMSO was used as solvent control.
Hsp70 protein was diluted with 10 mmol/L sodium acetate buffer solution (pH 5.0) to 30 μg/ml, and coupled directly on a hydrophilic carboxylmethyl dextran matrix sensor chip M5 through normalized primary amine coupling reaction, RU=11209, and then the chip was balanced for 1-2 h with PBS Buffer at […].
At a flow rate of […], with PBS containing 5% DMSO as mobile phase, at 25° C., the compound was introduced in the sequence of 0.003, 0.01, 0.03, 0.1, 0.3, 1, 3 and 10 μM, with binding time of 90 seconds, and dissociation time of 120 seconds.
According to binding characteristics between the compounds and protein, the binding constant (equilibrium dissociation constant KD) between drugs and protein was calculated by selecting steady state model with the formula: Conc*Rmax/[conc+KD]+offset.

mice = experiment: Acute toxicity experiment with single intragastric administration to mice; type: in vivo; conditions: for Quantity of animals (survival/death): 14 d observation
Procedure: Acute toxicity experiment with single intragastric administration to mice of the compound of Example 36 according to the following method
(2) Preparation of test sample: a suitable amount of sample was weighed, and suspended in 0.5% CMC-Na, followed by vortex vibration till uniform. The resulting suspension was fully vibrated before administration.
According to the results of pre-experiment, experiment was conducted using Fixed-dose procedure. 70 mice were randomly divided into 7 groups, 10 mice each group, male and female in half. The administration doses were respectively: 1555, 1296, 1080, 900, 750, 625 and 520 mg/kg, and observation of the animals after administration continued for 14 days.
Observation was conducted once 5 min, 10 min, 20 min, 30 min, 1 h, 2 h, 4 h, 6 h, 8 h, 12 h, 18 h, 1 d, 2 d, 3 d, 7 d and 14 d respectively after administration, to record the animal death and toxic response.
LD50 was calculated by statistical analysis using SAS software.
2. Calculation of LD50 Using Bliss Method

T1 sequence (P0DMV8 whole entry): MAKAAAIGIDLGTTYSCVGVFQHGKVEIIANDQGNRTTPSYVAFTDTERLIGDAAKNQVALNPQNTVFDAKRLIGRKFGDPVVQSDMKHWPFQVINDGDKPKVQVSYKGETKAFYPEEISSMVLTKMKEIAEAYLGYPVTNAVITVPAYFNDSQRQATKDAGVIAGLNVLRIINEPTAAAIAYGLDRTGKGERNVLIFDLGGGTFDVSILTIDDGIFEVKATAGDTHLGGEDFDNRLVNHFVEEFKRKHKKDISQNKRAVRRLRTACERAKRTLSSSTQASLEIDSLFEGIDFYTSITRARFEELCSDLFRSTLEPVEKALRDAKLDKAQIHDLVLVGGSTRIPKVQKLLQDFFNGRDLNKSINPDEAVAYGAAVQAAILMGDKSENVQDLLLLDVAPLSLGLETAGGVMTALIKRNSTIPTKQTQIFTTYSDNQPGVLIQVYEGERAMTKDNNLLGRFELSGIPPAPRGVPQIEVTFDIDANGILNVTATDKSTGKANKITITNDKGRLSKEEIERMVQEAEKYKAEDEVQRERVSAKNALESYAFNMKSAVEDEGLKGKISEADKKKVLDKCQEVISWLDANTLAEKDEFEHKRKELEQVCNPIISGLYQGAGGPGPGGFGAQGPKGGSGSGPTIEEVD

In the case of `CSc1nccc(N2CCC(N(C)Cc3ccc(C#N)cc3)CC2)n1` [Example 36, N-methyl-N-(4-cyanobenzyl)-N-[1-(2-methylthiopyrimidin-4-yl)piperidin-4-yl]amine], the “KD compared with positive control drug VER-155008” value (Hsp70) is reported as “KD values equivalent to that of the positive control drug VER-155008”, the Kd (Hsp70; steady state model, 25° C., read-out: KD (binding constant between the compounds and Hsp70)) is reported as 246 nM and the “Quantity of animals (survival/death)” value (mice; 520 mg/kg, Female) is reported as 5/0. The “Quantity of animals (survival/death)” value (mice; 520 mg/kg, Male) was 5/0, the “Quantity of animals (survival/death)” value (mice; 625 mg/kg, Female) was 5/0 and the “Quantity of animals (survival/death)” value (mice; 625 mg/kg, Male) was 4/1. The “Quantity of animals (survival/death)” value (mice; 750 mg/kg, Female) was 2/3, the “Quantity of animals (survival/death)” value (mice; 750 mg/kg, Male) was 4/1 and the “Quantity of animals (survival/death)” value (mice; 900 mg/kg, Female) was 2/3. For the same compound, the “Quantity of animals (survival/death)” value (mice; 900 mg/kg, Male) was 3/2, the “Quantity of animals (survival/death)” value (mice; 1080 mg/kg, Female) was 2/3 and the “Quantity of animals (survival/death)” value (mice; 1080 mg/kg, Male) was 0/5. For the same compound, the “Quantity of animals (survival/death)” value (mice; 1296 mg/kg, Female) was 0/5, the “Quantity of animals (survival/death)” value (mice; 1296 mg/kg, Male) was 1/4 and the “first animal death, time after administration” value (mice; 1555 mg/kg dose group) was 5 min. For the same compound, the “Quantity of animals (survival/death)” value (mice; 1555 mg/kg, Female) was 0/5, the “Quantity of animals (survival/death)” value (mice; 1555 mg/kg, Male) was 0/5 and the gross anatomical examination (mice; animals dead during or killed at end of the experiment) was “No obvious abnormality was found”. The “survival of the dose group” value (mice; mouse, in vivo) was “all survived”, the “clinical manifestations of animal poisoning” value (mice; single intragastric administration, 520-1555 mg/kg) was “muscle tremors, convulsions, eye closed, curled up into a ball, erected hair, reduced activity, loss of appetite” and the “LD50 and 95% confidence limit” value (mice; single intragastric administration, mice, Bliss method, SAS) was 869.0 (776.5-969.4) mg/kg.
